Patent US3950427A, “Araliphatic ketones and carbinols” (Boehringer Ingelheim GmbH, priority 1973, dated 1976)
Where two headings read alike, the source gives them in different places.

Assays:
Assay type in all cases: in vivo, rat (male FW 49)
[1] = tested on: Kaolin-induced edema of the hind paw of the rat; test: Kaolin-induced edema of the hind paw of the rat (anti-exudative effect); conditions: 30 minutes before inducing edema, swelling 5 hours after; for ED35: Rattus norvegicus, po, 5 h, read-out: Kaolin edema ED35 per os; for Kaolin edema ED35 per os: oral
Description: (§1) The compunds were tested for their anti-exudative effect on Kaolin-induced edema and carrageenin-induced edema in the hind paw of the rat after oral administration to the rat.
a. Kaolin-induced edema of the hind paw of the rat
(§2) The kaolin edema was induced according to the method given by Hillebrecht [Arzneimittel-Forsch. 4, 607 (1954)] by subplanar injection of 0.05 ml of a 10% suspension of kaolin in a 0.85% sodium chloride solution. Measurement of the thickness of the paws was effected using the technique of Doepfner and Cerletti [Int. Arch. Allergy Immunol. 12, 89 (1958)].
(§3) The test compound was administered orally to male FW 49 rats weighing 120-150 gm by means of an esophageal tube 30 minutes before inducing the edema. 5 hours after inducing the edema the average size of the swelling in the rats treated with the test compound was compared with the size of the swelling in blind-treated control animals. By graphic extrapolation the dose leading to a 35% of the swelling (ED35) was calculated from the percentage reduction in the size of the swelling caused by the administration of different doses.

[2] = tested on: Kaolin edema and carrageenin edema of the hind paw of the rat; test: Average value of kaolin edema and carrageenin edema; conditions: per os, Table I; for ED35: Rattus norvegicus
Description: as §1, §2, §3
(§4) The carrageenin edema was induced according to the method of Winder et al. [Proc. Soc. exp. Biol. Med. 111, 544 (1962)] by subplanar injection of 0.05 ml of a 1% solution of carrageenin in a 0.85% solution of sodium chloride. The test compound was administered 60 minutes before the provocation of the edema.
(§5) For the calculation of the reductive effect on the edema, the size of the swelling was measured 3 hours after the provocation of the edema. All other details were the same as described above in the case of the kaolin edema.

[3] = tested on: Carrageenin-induced edema of the hind paw of the rat; test: Carrageenin-induced edema of the hind paw of the rat (anti-exudative effect); conditions: 60 minutes before provocation, swelling 3 hours after; for ED35: Rattus norvegicus, po, 3 h, read-out: Carrageenin edema ED35 per os; for Carrageenin edema ED35 per os: oral
Description: as §1, §3
b. Carrageenin-induced edema of the hind paw of the rat
as §4, §5

Adjuvant arthritis-rat = test: Adjuvant arthritis test on rats (M.butyricum); conditions: po, 504 h, 21st day, once daily for 20 days by esophageal tube
Description: The adjuvant arthritis tests on rats were performed in analogy to the procedure described by Rosenthale and Nagra [Proc. Soc. exp. Biol. Med. 125, 149 (1967)].
Male FW 49-rats were given a subplantar injection of 0.1 ml of a 1% suspension of M.butyricum in viscous paraffin oil in a hind paw. The test compound was administered, beginning with the M.butyricum injection, once daily for 20 days by esophageal tube.
On the 21st day after inducing the arthritis, the volumes of the right paw (non-specific primary reaction at the place of injection) and the left paw (immunologically predicated specific secondary reaction) of the animals treated with the test compound were compared with those of the blind-treated control animals. From the swelling reduction obtained with the various doses, an ED50 was graphically determined.

[4] = left paw volume, read-out: Adjuvant arthritis-rat ED50 per os, Secondary reaction
[5] = right paw volume, read-out: Adjuvant arthritis-rat ED50 per os, Primary reaction

| SMILES | ED35 ([1]; Table I) | ED35 [2] | ED35 ([3]; Table I) | also measured |
| --- | --- | --- | --- | --- |
| CC(O)CCCCCCc1ccc(-c2ccccc2F)cc1 (centres unmarked) [C, 8-(2'-fluoro-4-biphenylyl)-2-octanol] | 15 mg/kg | 16 mg/kg | 17 mg/kg |  |
| C/C(=C\C(C)O)c1ccc(CC(C)C)c(Cl)c1 (centres unmarked) [EE, (e)-4-(3-chloro-4-isobutyl-phenyl)-3-pentane-2-ol] | 54 mg/kg | 53 mg/kg | 52 mg/kg |  |
| CC(O)CC(C)c1ccc(-c2ccccc2)c(Cl)c1 (centres unmarked) [O, 4(2-chloro-4-biphenylyl)-2-pentanol] | 48 mg/kg |  |  |  |
| CC(=O)CCCCc1ccc(-c2ccccc2F)cc1 [D, 6-(2'-fluoro-4-biphenylyl)-2-hexanone] | 9 mg/kg | 9.75 mg/kg | 10.5 mg/kg |  |
| CC(=O)/C=C(\C)c1ccc(C2CCCCC2)c(Cl)c1 [P, (e)-4-(3-chloro-4-cyclohexyl-phenyl)-3-pentene-2-one] | 17 mg/kg | 12.8 mg/kg | 8.6 mg/kg | ED35 ([1]; Table II): 17 mg/kg; ED35 ([3]; Table II): 8.6 mg/kg; ED50 (Adjuvant arthritis-rat; [4]): < 0.6 mg/kg; ED50 (Adjuvant arthritis-rat; [5]): < 0.7 mg/kg |
| CC(=O)CC(C)c1ccc(C2CCCCC2C)cc1 (centres unmarked) [CC, (e)-4-[4-(2-methyl-cyclohexyl)-phenyl]-2-pentanone] | 29 mg/kg | 25 mg/kg | 21 mg/kg |  |
| CC(=O)CC(C)c1ccc(-c2ccccc2)cc1 (centres unmarked) [E, 4-(4-biphenylyl)-2-pentanone] | 21 mg/kg | 18 mg/kg | 15 mg/kg | ED35 ([1]; Table II): 21 mg/kg; ED35 ([3]; Table II): 15 mg/kg; ED50 (Adjuvant arthritis-rat; [4]): < 4 mg/kg; ED50 (Adjuvant arthritis-rat; [5]): < 4 mg/kg |
| CC(=O)CC(C)c1ccc(-c2ccccc2)c(Cl)c1 (centres unmarked) [N, 4-(2-chloro-4-biphenylyl)-2-pentanone] | 31.5 mg/kg | 24 mg/kg | 16.5 mg/kg |  |
| CC(=O)/C=C(\C)c1ccc(CC(C)C)c(Cl)c1 [DD, (e)-4-(3-chloro-4-isobutyl-phenyl)-3-pentene-2-one] | 50 mg/kg | 34.5 mg/kg | 19 mg/kg |  |
| CC(=O)/C=C(\C)c1ccc(-c2ccccc2)cc1 [G, (e)-4-(4-biphenylyl)-3-pentene-2-one] | 23.5 mg/kg | 16.1 mg/kg | 8.6 mg/kg |  |
| CC(=O)CCCCCCc1ccc(-c2ccccc2F)cc1 [F, 8-(2'-fluoro-4-biphenylyl)-2-octanone] | 9.8 mg/kg | 12.2 mg/kg | 14.5 mg/kg |  |
| CC(O)CC(C)c1ccc(C2CCCCC2)cc1 (centres unmarked) [W, 4-(4-cyclohexyl-phenyl)-2-pentanol] | 26 mg/kg |  |  |  |
| CC(=O)CC(C)c1ccc(C2CCCCC2)cc1 (centres unmarked) [U, 4-(4-cyclohexyl-phenyl)-2-pentanone] | 15 mg/kg |  |  |  |
| CC(=O)/C=C(\C)c1ccc(-c2ccccc2)c(Cl)c1 [L, (e)-4-(2-chloro-4-biphenylyl)-3-pentene-2-one] | 15.5 mg/kg | 10.6 mg/kg | 5.6 mg/kg |  |
| CC(=O)/C=C(\C)c1ccc(C2CCCCC2)c(Br)c1 [X, (e)-4-(3-bromo-4-cyclohexyl-phenyl)-3-pentene-2-one] | 22 mg/kg | 22 mg/kg | 22 mg/kg |  |
| C/C(=C\C(C)O)c1ccc(C2CCCCC2)c(Br)c1 (centres unmarked) [Z, (e)-4-(3-bromo-4-cyclohexyl-phenyl)-3-pentene-2-ol] | 16 mg/kg |  |  |  |

| SMILES | ED35 ([1]; Table I) | ED35 [2] | ED35 ([3]; Table I) | also measured |
| --- | --- | --- | --- | --- |
| CC(=O)/C=C(\C)c1ccc(C2CCCCC2)cc1 [T, (e)-4-(4-cyclohexyl-phenyl)-3-pentene-2one] | 12.5 mg/kg | 12.2 mg/kg | 12 mg/kg |  |
| C/C(=C\C(C)O)c1ccc(C2CCCCC2)cc1 (centres unmarked) [V, (e)-4-(4-cyclohexyl-phenyl)-3-pentene-2-ol] |  |  |  | Kaolin edema ED35 per os ([1]; Table I): 13.3 mgm/kg; Average value ED35 [2]: 10.45 mgm/kg; Carrageenin edema ED35 per os ([3]; Table I): 7.6 mgm/kg |
| CC(O)CC(C)c1ccc(C2CCCCC2)c(Cl)c1 (centres unmarked) [S, 4-(3-chloro-4-cyclohexyl-phenyl)-2-pentanol] | 7.6 mg/kg | 7.3 mg/kg | 7 mg/kg |  |
| CC(O)CC(C)c1ccc(-c2ccccc2)c(F)c1 (centres unmarked) [I, 4-(2-fluoro-4-biphenylyl)-2-pentanol] | 17 mg/kg | 16.8 mg/kg | 16.5 mg/kg |  |
| CC(O)/C=C/c1ccc(-c2ccccc2)c(F)c1 (centres unmarked) [A, (e)-4-(2-fluoro-4-biphenylyl)-3-butene-2-ol] | 15 mg/kg | 13.7 mg/kg | 12.4 mg/kg |  |
| C/C(=C\C(C)O)c1ccc(-c2ccccc2F)cc1 (centres unmarked) [K, (e)-4-(2'-fluoro-4-biphenylyl)-3-pentene-2-ol] | 17.5 mg/kg | 15.2 mg/kg | 12.8 mg/kg | ED35 ([1]; Table II): 17.5 mg/kg; ED35 ([3]; Table II): 17 mg/kg; ED50 (Adjuvant arthritis-rat; [4]): < 2 mg/kg; ED50 (Adjuvant arthritis-rat; [5]): < 1.5 mg/kg |
| CC(=O)/C=C(\C)c1ccc([C@@H]2CCCC[C@H]2C)cc1 (relative stereo) [BB, (e,e)-4-[4-(2-methyl-cyclohexyl)-phenyl]-3-pentene-2-one] | 19 mg/kg | 16 mg/kg | 13 mg/kg |  |
| C/C(=C\C(C)O)c1ccc(C2CCCCC2)c(Cl)c1 (centres unmarked) [R, (e)-4-(3-chloro-4-cyclohexyl-phenyl)-3-pentene-2-ol] | 4.8 mg/kg | 3.95 mg/kg | 3.1 mg/kg | ED35 ([1]; Table II): 4.8 mg/kg; ED35 ([3]; Table II): 3.1 mg/kg; ED50 (Adjuvant arthritis-rat; [4]): < 0.7 mg/kg; ED50 (Adjuvant arthritis-rat; [5]): < 0.3 mg/kg |
| CC(O)CCc1ccc(-c2ccccc2)c(F)c1 (centres unmarked) [B, 4-(2-fluoro-4-biphenylyl)-2-butanol] | 16 mg/kg | 14 mg/kg | 12 mg/kg |  |
| C/C(=C\C(C)O)c1ccc(-c2ccccc2)c(Cl)c1 (centres unmarked) [M, (e)-4-(2-chloro-4-biphenylyl)-3-pentene-2-ol] | 26 mg/kg | 24.5 mg/kg | 23 mg/kg |  |
| CC(=O)CC(C)c1ccc(C2CCCCC2)c(Cl)c1 (centres unmarked) [Q, 4-(3-chloro-4-cyclohexyl-phenyl)-2-pentanone] | 5 mg/kg | 3.75 mg/kg | 2.5 mg/kg | ED35 ([1]; Table II): 5 mg/kg; ED35 ([3]; Table II): 2.5 mg/kg; ED50 (Adjuvant arthritis-rat; [4]): < 0.2 mg/kg; ED50 (Adjuvant arthritis-rat; [5]): < 0.4 mg/kg |
| CC(=O)CC(C)c1ccc(C2CCCCC2)c(Br)c1 (centres unmarked) [Y, 4-(3-bromo-4-cyclohexyl-phenyl)-2-pentanone] | 13 mg/kg |  |  |  |
| CC(=O)/C=C(\C)c1ccc(-c2ccccc2F)cc1 [H, (e)-4-(2'-fluoro-4-biphenylyl)-3-pentene-2-one] | 37 mg/kg | 22.9 mg/kg | 8.9 mg/kg | ED35 ([1]; Table II): 37 mg/kg; ED35 ([3]; Table II): 11 mg/kg; ED50 (Adjuvant arthritis-rat; [4]): < 1 mg/kg; ED50 (Adjuvant arthritis-rat; [5]): < 2 mg/kg |
| C/C(=C\C(C)O)c1ccc(C2CCCCC2)cc1 (centres unmarked) [FF, (e)-4-(4-cyclohexyl-phenyl)-3-pentene-2-ol] |  |  |  | Kaolin edema ED35 per os ([1]; Table I): 49 mgm/kg; Average value ED35 [2]: 42 mgm/kg; Carrageenin edema ED35 per os ([3]; Table I): 35 mgm/kg |
| CC(O)CC(C)c1ccc(C2CCCCC2)c(Br)c1 (centres unmarked) [AA, 4-(3-bromo-4-cyclohexyl-phenyl)-2-pentanol] | 28 mg/kg | 23.2 mg/kg | 18.5 mg/kg |  |
